Drawing on PubChem BioAssay (NCI), this text covers GI50 and TGI for ten compounds.

Some test systems named below: CAKI-1 renal; HL-60(TB) leukemia; HOP-92 NSCLC; IGROV1 ovarian; NCI-H226 lung; NCI-H23 lung; NCI/ADR-RES ovarian; OVCAR-4 ovarian; OVCAR-8 ovarian; PC-3 prostate.
What all share (assay): inhibition of tumour cell growth, NCI panel, 48 h

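Values below derive from 48-hour exposures of cells grown in 96-well plates, with endpoints linearly interpolated between the two concentrations bracketing the appropriate inhibition level. The concentration for 50% growth inhibition is given as GI50. At the TGI there is no net growth.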

For the compound `Cc1ccc(C)c(N2CCN(c3ccncc3N)CC2)c1`, the GI50 with CAKI-1 renal was 13.4 µM; in the experiment on HL-60(TB) leukemia, 15.9 µM; with HOP-92 NSCLC it was 12.3 µM; in the experiment on IGROV1 ovarian, 23.9 µM; in the experiment on NCI-H226 lung, 17.2 µM; with NCI-H23 lung it was 12.1 µM. The GI50 with NCI/ADR-RES ovarian was 14.5 µM; with OVCAR-4 ovarian, 19.1 µM; with OVCAR-8 ovarian, 20.2 µM; with PC-3 prostate, 14.2 µM. In addition, the TGI is 83.9 µM in the experiment on CAKI-1 renal; 54.9 µM with HL-60(TB) leukemia; 46.2 µM with HOP-92 NSCLC; > 100 µM in the experiment on IGROV1 ovarian; 67 µM in the experiment with NCI-H226 lung; 61 µM in the experiment on NCI-H23 lung. Besides, the TGI with NCI/ADR-RES ovarian was > 100 µM; in the experiment on OVCAR-4 ovarian, > 100 µM; with OVCAR-8 ovarian it was > 100 µM; with PC-3 prostate it was 84.7 µM.
`COc1cc2c(c3oc4c(O)cccc4c(=O)c13)CC(C(C)(O)CCl)O2` (centres undefined): the TGI in the experiment on CAKI-1 renal worked out at 7.68 µM; in the experiment on HOP-92 NSCLC, 10.5 µM; in the experiment with IGROV1 ovarian it was 8.28 µM; in the experiment with NCI-H226 lung, 24.2 µM; in the experiment on NCI-H23 lung, 6.14 µM; in the experiment with NCI/ADR-RES ovarian, 11.9 µM. For the same compound, the TGI in the experiment with OVCAR-4 ovarian is 8.18 µM; in the experiment on OVCAR-8 ovarian it was 7.94 µM; with PC-3 prostate, 7.76 µM.
`Oc1ccccc1/C=N\NC(=S)Nc1ccc(F)cc1`: the GI50 is 1.57 µM with CAKI-1 renal; 0.906 µM in the experiment with HL-60(TB) leukemia; 0.962 µM with HOP-92 NSCLC; 1.31 µM with IGROV1 ovarian; 2.76 µM with NCI-H226 lung; 2.37 µM in the experiment with NCI-H23 lung. Besides, the GI50 is 0.443 µM in the experiment on NCI/ADR-RES ovarian, 0.462 µM with OVCAR-4 ovarian, 1.22 µM in the experiment with OVCAR-8 ovarian and 7.81 µM with PC-3 prostate. Also, the TGI was > 24.3 µM in the experiment on CAKI-1 renal; 6.22 µM in the experiment with HL-60(TB) leukemia; > 100 µM in the experiment with HOP-92 NSCLC; 17.7 µM in the experiment on IGROV1 ovarian; > 32.5 µM with NCI-H226 lung; > 100 µM in the experiment with NCI-H23 lung. The TGI was > 37.8 µM in the experiment with NCI/ADR-RES ovarian, 49.4 µM with OVCAR-4 ovarian, > 63.1 µM with OVCAR-8 ovarian and > 100 µM with PC-3 prostate.
On to `NS(=O)(=O)c1cccc(Nc2cc(-c3ccc(F)cc3)[nH]n2)c1`, for which the GI50 with CAKI-1 renal is 12.4 µM; with HL-60(TB) leukemia it was > 25 µM; in the experiment on HOP-92 NSCLC, > 25 µM; in the experiment with IGROV1 ovarian it was 19.3 µM; in the experiment on NCI-H226 lung, > 25 µM; in the experiment on NCI-H23 lung, > 25 µM. Besides, the GI50 in the experiment on NCI/ADR-RES ovarian was > 25 µM; with OVCAR-4 ovarian it was > 22 µM; in the experiment on OVCAR-8 ovarian, 19.4 µM; in the experiment on PC-3 prostate, > 23.6 µM. Moreover, the TGI in the experiment with CAKI-1 renal, in the experiment with HL-60(TB) leukemia, with HOP-92 NSCLC, in the experiment with IGROV1 ovarian, with NCI-H226 lung and in the experiment with NCI-H23 lung was > 25 µM each time. For the same compound, the TGI with NCI/ADR-RES ovarian, in the experiment on OVCAR-4 ovarian, in the experiment on OVCAR-8 ovarian and with PC-3 prostate was > 25 µM each time.
Turning to `N#Cc1ccc2c(-c3ccnc(NC4CC4)n3)c(-c3ccc(F)cc3)nn2c1`, the GI50 is 14.6 µM in the experiment with CAKI-1 renal; > 25 µM in the experiment with HL-60(TB) leukemia; > 25 µM in the experiment on HOP-92 NSCLC; > 25 µM in the experiment with IGROV1 ovarian; > 25 µM in the experiment on NCI-H226 lung; > 25 µM in the experiment on NCI-H23 lung. In addition, the GI50 in the experiment on NCI/ADR-RES ovarian, in the experiment on OVCAR-4 ovarian, in the experiment with OVCAR-8 ovarian and in the experiment with PC-3 prostate was > 25 µM throughout. The TGI in the experiment on CAKI-1 renal, with HL-60(TB) leukemia, with HOP-92 NSCLC, with IGROV1 ovarian, in the experiment with NCI-H226 lung and in the experiment on NCI-H23 lung was > 25 µM in each case. Besides, the TGI in the experiment on NCI/ADR-RES ovarian, in the experiment with OVCAR-4 ovarian, in the experiment on OVCAR-8 ovarian and in the experiment with PC-3 prostate was > 25 µM each time.
For `O=C(NCCN1CCOCC1)c1cc2c(Oc3ccc(NC(=O)C4(C(=O)Nc5ccc(F)cc5)CC4)cc3)ccnc2[nH]1`, the GI50 with CAKI-1 renal was 13.7 µM; with HL-60(TB) leukemia it was 15.2 µM; in the experiment on HOP-92 NSCLC, 1.82 µM; in the experiment on IGROV1 ovarian, 2.32 µM; in the experiment on NCI-H226 lung, 3.73 µM; in the experiment with NCI-H23 lung, 1.59 µM. Further, the GI50 with NCI/ADR-RES ovarian was 22.9 µM; in the experiment with OVCAR-4 ovarian, 5.13 µM; in the experiment on OVCAR-8 ovarian, 5.19 µM; with PC-3 prostate, 5.77 µM. In addition, the TGI in the experiment on CAKI-1 renal was > 100 µM; with HL-60(TB) leukemia it was 47 µM; with HOP-92 NSCLC, 16.5 µM; in the experiment on IGROV1 ovarian, > 100 µM; with NCI-H226 lung, 50.3 µM; in the experiment on NCI-H23 lung, > 75.1 µM. In addition, the TGI was > 100 µM with NCI/ADR-RES ovarian, > 100 µM in the experiment on OVCAR-4 ovarian, > 100 µM with OVCAR-8 ovarian and 64.6 µM in the experiment with PC-3 prostate.
Turning to `Nc1nc(N)c(CCCCc2ccc([N+](=O)[O-])cc2)c(N)n1`, the TGI in the experiment on CAKI-1 renal, in the experiment on HL-60(TB) leukemia, with HOP-92 NSCLC, in the experiment on IGROV1 ovarian, in the experiment with NCI-H226 lung and in the experiment on NCI-H23 lung was > 100 µM throughout. For the same compound, the TGI in the experiment with NCI/ADR-RES ovarian, in the experiment with OVCAR-4 ovarian, with OVCAR-8 ovarian and with PC-3 prostate was > 100 µM in each case.
In the case of `COC(=O)C(=O)C(C(=O)C(=O)Nc1cc(C)ccc1C)c1nc2ccccc2[nH]c1=O` (centres undefined), the TGI in the experiment on CAKI-1 renal, with HOP-92 NSCLC, in the experiment on IGROV1 ovarian, in the experiment on NCI-H226 lung, in the experiment with NCI-H23 lung and with NCI/ADR-RES ovarian was > 100 µM throughout. Further, the TGI in the experiment with OVCAR-4 ovarian, in the experiment with OVCAR-8 ovarian and in the experiment with PC-3 prostate was > 100 µM each time.
As for `C=C1C(=O)C23C(O)CC4C(C)(C)CCC(O)C4(C)C2CC(OC(C)=O)C1[C@H]3O` (some centres undefined), the TGI with CAKI-1 renal was 9.39 µM; in the experiment with HL-60(TB) leukemia it was 3.53 µM; in the experiment with HOP-92 NSCLC, 7.01 µM; in the experiment with NCI-H226 lung it was 28.1 µM; with NCI-H23 lung, 8.38 µM; in the experiment with NCI/ADR-RES ovarian, 42.9 µM. Besides, the figures for the TGI in the experiment on OVCAR-8 ovarian and in the experiment on PC-3 prostate were 2.83 µM and 23.7 µM, respectively.
As to `NP1(Oc2ccc(F)cc2)=NP(N)(Oc2ccc(F)cc2)=NP(Oc2ccc(F)cc2)(Oc2ccc(F)cc2)=N1` (centres undefined), the TGI in the experiment with CAKI-1 renal was found to be 21.8 µM; with HL-60(TB) leukemia, 22.3 µM; with HOP-92 NSCLC, 15.4 µM; in the experiment with IGROV1 ovarian, 6.31 µM; with NCI-H23 lung it was 23.9 µM; with NCI/ADR-RES ovarian it was 18.4 µM. Further, the TGI amounted to 14.9 µM with OVCAR-8 ovarian and 16.4 µM in the experiment on PC-3 prostate.
